Data from patent US20260069725A1, “LIGAND COMPOUND TARGETING PSMA ANTIGEN, AND CHELATE AND USE THEREOF IN DIAGNOSIS AND TREATMENT OF PROSTATE CANCER” (Chengdu StarRay Therapeutics Co., Ltd, priority 2021, published 2026).

Test system: LNCaP tumor bearing mice
Assay: SPECT/CT scanning, exposure of 177Lu labeled compounds in tumor and tissues
Format: in vivo
Experimental: The ^177Lu labeled precursor compound was diluted to 7.4 MBq (200 μCi)/200 […] with normal saline, and each tumor bearing mouse was given about 7.4 MBq (200 μCi) of the drug via tail vein injection. SPECT/CT scanning was performed on the mice at 1, 4, 8, 24, 48 and 72 h after administration, respectively, with the mice under continuous anesthesia with isoflurane, lying prone on an examination bed. The acquisition method was static imaging 12 min SPECT, and medium resolution whole-body imaging CT. During the process, according to the recording table, the animal body weight, injection dose, injection time and residual dose were recorded, and the time of measuring the injection dose and the time of measuring the residual dose were recorded respectively. After scanning, the data were reconstructed, PMOD software was used to analyze and delineate each organ tissue and quantify the drug distribution therein, the images and data were saved, and the data were further subjected to statistical analysis.
Drug exposure in each tissue was calculated (Table 1, where the values involving PSMA-D were the predicted values).

[1] = labeled with 177Lu, about 7.4 MBq (200 μCi) tail vein, scans 1-72 h

SMILES: O=C(O)CC[C@H](NC(=O)N[C@@H](CCCCNC(=O)[C@H](Cc1ccc2ccccc2c1)NC(=O)[C@H]1CC[C@H](CNC(=O)CN2CCN(CC(=O)O)CCN(CC(=O)O)CCN(CC(=O)O)CC2)CC1)C(=O)O)C(=O)O [PSMA-617, reference compound]
- Exposure in Bladder [1]: 553.2 h*ID %/g
- Exposure in Bone [1]: 9.939 h*ID %/g
- Exposure in Heart [1]: 23.31 h*ID %/g
- Exposure in Kidney [1]: 77.45 h*ID %/g
- Exposure in Liver [1]: 48.92 h*ID %/g
- Exposure in Lung [1]: 40.93 h*ID %/g
- Exposure in Muscle [1]: 36.36 h*ID %/g
- Exposure in Spleen [1]: 54.27 h*ID %/g
- Exposure in Tumor [1]: 346.9 h*ID %/g

SMILES: COc1ccc(CCCC(=O)NC(CCCNC(=N)N)C(=O)N[C@@H](CCCCNC(=O)CN2CCN(CC(=O)O)CCN(CC(=O)O)CCN(CC(=O)O)CC2)C(=O)NCC2CCC(C(=O)N[C@@H](Cc3ccc4ccccc4c3)C(=O)NCCCC[C@H](NC(=O)N[C@@H](CCC(=O)O)C(=O)O)C(=O)O)CC2)cc1 (stereo partly drawn) [PSMA-A]
- Exposure in Bladder [1]: 310.2 h*ID %/g
- Exposure in Bone [1]: 40.07 h*ID %/g
- Exposure in Heart [1]: 50.46 h*ID %/g
- Exposure in Kidney [1]: 206 h*ID %/g
- Exposure in Liver [1]: 101.6 h*ID %/g
- Exposure in Lung [1]: 35.49 h*ID %/g
- Exposure in Muscle [1]: 17.65 h*ID %/g
- Exposure in Spleen [1]: 42.25 h*ID %/g
- Exposure in Tumor [1]: 235 h*ID %/g

SMILES: COc1ccc(CCCC(=O)NC(Cc2c[nH]cn2)C(=O)N[C@@H](CCCCNC(=O)CN2CCN(CC(=O)O)CCN(CC(=O)O)CCN(CC(=O)O)CC2)C(=O)NCC2CCC(C(=O)N[C@@H](Cc3ccc4ccccc4c3)C(=O)NCCCC[C@H](NC(=O)N[C@@H](CCC(=O)O)C(=O)O)C(=O)O)CC2)cc1 (stereo partly drawn) [PSMA-B]
- Exposure in Bladder [1]: 157.3 h*ID %/g
- Exposure in Bone [1]: 20.62 h*ID %/g
- Exposure in Heart [1]: 54.22 h*ID %/g
- Exposure in Kidney [1]: 330.5 h*ID %/g
- Exposure in Liver [1]: 53.28 h*ID %/g
- Exposure in Lung [1]: 50.04 h*ID %/g
- Exposure in Muscle [1]: 32.14 h*ID %/g
- Exposure in Spleen [1]: 31.81 h*ID %/g
- Exposure in Tumor [1]: 370 h*ID %/g

SMILES: COc1ccc(CCCC(=O)NC(CCCCN)C(=O)N[C@@H](CCCCNC(=O)CN2CCN(CC(=O)O)CCN(CC(=O)O)CCN(CC(=O)O)CC2)C(=O)NCC2CCC(C(=O)N[C@@H](Cc3ccc4ccccc4c3)C(=O)NCCCC[C@H](NC(=O)N[C@@H](CCC(=O)O)C(=O)O)C(=O)O)CC2)cc1 (stereo partly drawn) [PSMA-C]
- Exposure in Bladder [1]: 100.8 h*ID %/g
- Exposure in Bone [1]: 32.01 h*ID %/g
- Exposure in Heart [1]: 38.58 h*ID %/g
- Exposure in Kidney [1]: 178.7 h*ID %/g
- Exposure in Liver [1]: 49.61 h*ID %/g
- Exposure in Lung [1]: 31.55 h*ID %/g
- Exposure in Muscle [1]: 17.82 h*ID %/g
- Exposure in Spleen [1]: 29.2 h*ID %/g
- Exposure in Tumor [1]: 131.9 h*ID %/g

SMILES: COc1ccc(CCCC(=O)NC(CO)C(=O)N[C@@H](CCCCNC(=O)CN2CCN(CC(=O)O)CCN(CC(=O)O)CCN(CC(=O)O)CC2)C(=O)NCC2CCC(C(=O)N[C@@H](Cc3ccc4ccccc4c3)C(=O)NCCCC[C@H](NC(=O)N[C@@H](CCC(=O)O)C(=O)O)C(=O)O)CC2)cc1 (stereo partly drawn) [PSMA-D]
- Exposure in Bladder (predicted values (PSMA-D)): 200-800 h*ID %/g
- Exposure in Bone (predicted values (PSMA-D)): 10-80 h*ID %/g
- Exposure in Heart (predicted values (PSMA-D)): 20-100 h*ID %/g
- Exposure in Kidney (predicted values (PSMA-D)): 50-500 h*ID %/g
- Exposure in Liver (predicted values (PSMA-D)): 50-200 h*ID %/g
- Exposure in Lung (predicted values (PSMA-D)): 20-200 h*ID %/g
- Exposure in Muscle (predicted values (PSMA-D)): 20-100 h*ID %/g
- Exposure in Spleen (predicted values (PSMA-D)): 20-100 h*ID %/g
- Exposure in Tumor (predicted values (PSMA-D)): 200-1000 h*ID %/g

SMILES: COc1ccc(CCCC(=O)NC(CCC(N)=O)C(=O)N[C@@H](CCCCNC(=O)CN2CCN(CC(=O)O)CCN(CC(=O)O)CCN(CC(=O)O)CC2)C(=O)NCC2CCC(C(=O)N[C@@H](Cc3ccc4ccccc4c3)C(=O)NCCCC[C@H](NC(=O)N[C@@H](CCC(=O)O)C(=O)O)C(=O)O)CC2)cc1 (stereo partly drawn) [PSMA-E]
- Exposure in Bladder [1]: 710.2 h*ID %/g
- Exposure in Bone [1]: 51.75 h*ID %/g
- Exposure in Heart [1]: 19.52 h*ID %/g
- Exposure in Kidney [1]: 239 h*ID %/g
- Exposure in Liver [1]: 31.19 h*ID %/g
- Exposure in Lung [1]: 14.87 h*ID %/g
- Exposure in Muscle [1]: 25.53 h*ID %/g
- Exposure in Spleen [1]: 46.74 h*ID %/g
- Exposure in Tumor [1]: 473.6 h*ID %/g

SMILES: O=C(O)CCCCCCCCCCCCCCC(=O)N[C@@H](CCCCNC(=O)CN1CCN(CC(=O)O)CCN(CC(=O)O)CCN(CC(=O)O)CC1)C(=O)NCC1CCC(C(=O)N[C@@H](Cc2ccc3ccccc3c2)C(=O)NCCCC[C@H](NC(=O)N[C@@H](CCC(=O)O)C(=O)O)C(=O)O)CC1 (stereo partly drawn) [PSMA-F]
- Exposure in Bladder [1]: 633.7 h*ID %/g
- Exposure in Bone [1]: 94.85 h*ID %/g
- Exposure in Heart [1]: 581.6 h*ID %/g
- Exposure in Kidney [1]: 669.2 h*ID %/g
- Exposure in Liver [1]: 263.1 h*ID %/g
- Exposure in Lung [1]: 348.3 h*ID %/g
- Exposure in Muscle [1]: 253.3 h*ID %/g
- Exposure in Spleen [1]: 55.76 h*ID %/g
- Exposure in Tumor [1]: 1394 h*ID %/g

SMILES: O=C(O)CCCCCCCCCCCCC(=O)N[C@@H](CCCCNC(=O)CN1CCN(CC(=O)O)CCN(CC(=O)O)CCN(CC(=O)O)CC1)C(=O)NCC1CCC(C(=O)N[C@@H](Cc2ccc3ccccc3c2)C(=O)NCCCC[C@H](NC(=O)N[C@@H](CCC(=O)O)C(=O)O)C(=O)O)CC1 (stereo partly drawn) [PSMA-G]
- Exposure in Bladder [1]: 935.9 h*ID %/g
- Exposure in Bone [1]: 54.86 h*ID %/g
- Exposure in Heart [1]: 123.9 h*ID %/g
- Exposure in Kidney [1]: 1589 h*ID %/g
- Exposure in Liver [1]: 193.2 h*ID %/g
- Exposure in Lung [1]: 86.51 h*ID %/g
- Exposure in Muscle [1]: 71.89 h*ID %/g
- Exposure in Spleen [1]: 83.39 h*ID %/g
- Exposure in Tumor [1]: 226.4 h*ID %/g

SMILES: O=C(O)CCCCCCCCCCC(=O)N[C@@H](CCCCNC(=O)CN1CCN(CC(=O)O)CCN(CC(=O)O)CCN(CC(=O)O)CC1)C(=O)NCC1CCC(C(=O)N[C@@H](Cc2ccc3ccccc3c2)C(=O)NCCCC[C@H](NC(=O)N[C@@H](CCC(=O)O)C(=O)O)C(=O)O)CC1 (stereo partly drawn) [PSMA-H]
- Exposure in Bladder [1]: 1135 h*ID %/g
- Exposure in Bone [1]: 22.69 h*ID %/g
- Exposure in Heart [1]: 63.71 h*ID %/g
- Exposure in Kidney [1]: 575 h*ID %/g
- Exposure in Liver [1]: 72.88 h*ID %/g
- Exposure in Lung [1]: 56.76 h*ID %/g
- Exposure in Muscle [1]: 35.74 h*ID %/g
- Exposure in Spleen [1]: 62.06 h*ID %/g
- Exposure in Tumor [1]: 441.2 h*ID %/g
